Measured values taken from PubChem BioAssay AID248 (DTP/NCI, 2004).
Where “and” joins values, the source holds several entries; their conditions need not be identical. Equal entries are not always repeated. Toxic doses and inconclusive results are not listed. Rule as the data show it: active = T/C of 150% or more; inactive = T/C below 125%.

Tested on: L1210 leukemia ip in BDF1 mice, survival T/C
Experiment: NCI In Vivo Anticancer Drug Screen. Data for tumor model L1210 Leukemia (intraperitoneal) in B6D2F1 (BDF1) mice
Settings: endpoint: mean survival time, higher = longer survival
How it was run: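 Ratio derived from survival: compound-dosed mice over vehicle-dosed mice, all bearing a transplantable tumor.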

[1] = dose: 100.0 mg/kg/injection, schedule: Q01DX001 (ip), vehicle: saline
[2] = dose: 200.0 mg/kg/injection, schedule: Q01DX001 (ip), vehicle: saline
[3] = dose: 200.0 mg/kg/injection, schedule: Q01DX009 (ip), vehicle: saline
[4] = dose: 400.0 mg/kg/injection, schedule: Q01DX001 (ip), vehicle: saline

Measured: T/C

O=[N+]([O-])c1cc(Cl)c(Cl)cc1NS(=O)(=O)c1ccccc1
inactive: dose: 25.0 mg/kg/injection, schedule: Q01DX Z (ip), vehicle: carboxymethylcellulose (CMC) 101 % of control | dose: 50.0 mg/kg/injection, schedule: Q01DX Z (ip), vehicle: carboxymethylcellulose (CMC) 98 % of control | dose: 100.0 mg/kg/injection, schedule: Q01DX Z (ip), vehicle: carboxymethylcellulose (CMC) 101 % of control | dose: 200.0 mg/kg/injection, schedule: Q01DX Z (ip), vehicle: carboxymethylcellulose (CMC) 96 % of control | dose: 275.0 mg/kg/injection, schedule: Q01DX015 (ip), vehicle: carboxymethylcellulose (CMC) 90 % of control | dose: 350.0 mg/kg/injection, schedule: Q01DX015 (ip), vehicle: carboxymethylcellulose (CMC) 98 % of control | dose: 425.0 mg/kg/injection, schedule: Q01DX015 (ip), vehicle: carboxymethylcellulose (CMC) 111 % of control | dose: 700.0 mg/kg/injection, schedule: Q01DX015 (ip), vehicle: carboxymethylcellulose (CMC) 86 % of control

Cc1cc(C)c(C(=O)O)c(C)c1.[Hg]
inactive: dose: 3.0 mg/kg/injection, schedule: Q04DX003 (ip), vehicle: Klucel (hydroxypropylcellulose) (HPC) 96 % of control | dose: 6.0 mg/kg/injection, schedule: Q04DX003 (ip), vehicle: Klucel (hydroxypropylcellulose) (HPC) 91 % of control | dose: 12.0 mg/kg/injection, schedule: Q04DX003 (ip), vehicle: Klucel (hydroxypropylcellulose) (HPC) 86 % of control | dose: 12.5 mg/kg/injection, schedule: Q04DX003 (ip), vehicle: Klucel (hydroxypropylcellulose) (HPC) 88 % of control

ONc1ncnc2nc[nH]c12
inactive: dose: 7.5 mg/kg/injection, schedule: Q01DX009 (ip), vehicle: Klucel (hydroxypropylcellulose) (HPC) 121 % of control | dose: 15.0 mg/kg/injection, schedule: Q01DX009 (ip), vehicle: Klucel (hydroxypropylcellulose) (HPC) 119 % of control | dose: 30.0 mg/kg/injection, schedule: Q01DX009 (ip), vehicle: Klucel (hydroxypropylcellulose) (HPC) 117 % of control | dose: 50.0 mg/kg/injection, schedule: Q01DX009 (ip), vehicle: saline 114 % of control | dose: 60.0 mg/kg/injection, schedule: Q01DX009 (ip), vehicle: Klucel (hydroxypropylcellulose) (HPC) 121 % of control | [1] 110 % of control | [2] 112 % of control | [3] 114 % of control | [4] 114 % of control

O=C(/C=C\C=C\c1ccccc1)c1ccc([N+](=O)[O-])cc1
inactive: dose: 100.0 mg/kg/injection, schedule: Q01DX001 (ip), vehicle: carboxymethylcellulose (CMC) 92 % of control and 89 % of control | dose: 100.0 mg/kg/injection, schedule: Q01DX009 (ip), vehicle: carboxymethylcellulose (CMC) 100 % of control and 89 % of control | dose: 100.0 mg/kg/injection, schedule: Q04DX002 (ip), vehicle: gum acacia 95 % of control and 99 % of control | dose: 100.0 mg/kg/injection, schedule: Q04DX003 (ip), vehicle: carboxymethylcellulose (CMC) 93 % of control and 86 % of control | dose: 200.0 mg/kg/injection, schedule: Q01DX001 (ip), vehicle: carboxymethylcellulose (CMC) 95 % of control and 89 % of control | dose: 200.0 mg/kg/injection, schedule: Q01DX009 (ip), vehicle: carboxymethylcellulose (CMC) 90 % of control | dose: 200.0 mg/kg/injection, schedule: Q04DX002 (ip), vehicle: gum acacia 101 % of control and 89 % of control | dose: 200.0 mg/kg/injection, schedule: Q04DX003 (ip), vehicle: carboxymethylcellulose (CMC) 86 % of control and 90 % of control | dose: 400.0 mg/kg/injection, schedule: Q01DX001 (ip), vehicle: carboxymethylcellulose (CMC) 92 % of control and 89 % of control | dose: 400.0 mg/kg/injection, schedule: Q01DX009 (ip), vehicle: carboxymethylcellulose (CMC) 96 % of control and 97 % of control | dose: 400.0 mg/kg/injection, schedule: Q04DX002 (ip), vehicle: gum acacia 92 % of control and 89 % of control | dose: 400.0 mg/kg/injection, schedule: Q04DX003 (ip), vehicle: carboxymethylcellulose (CMC) 90 % of control

COc1cc(C2N=C(N)N=C(N)N2c2ccc(S(N)(=O)=O)cc2)cc(OC)c1OC (stereo not given)
inactive: dose: 75.0 mg/kg/injection, schedule: Q01DX001 (ip), vehicle: saline 93 % of control | dose: 150.0 mg/kg/injection, schedule: Q01DX001 (ip), vehicle: saline 96 % of control

CN=C(NCc1ccccc1)c1ccc(NC(=O)c2ccc(C(=O)Nc3ccc(C(=NC)NCc4ccccc4)cc3)c(Cl)c2)cc1
inactive: dose: 2.0 mg/kg/injection, schedule: Q01DX Z (ip), vehicle: carboxymethylcellulose (CMC) 92 % of control | dose: 4.0 mg/kg/injection, schedule: Q01DX Z (ip), vehicle: carboxymethylcellulose (CMC) 105 % of control | dose: 8.0 mg/kg/injection, schedule: Q01DX Z (ip), vehicle: carboxymethylcellulose (CMC) 105 % of control

CC(C)(C)SCCN1C(=O)C2C3CCC(O3)C2C1=O (stereo not given)
inactive: dose: 100.0 mg/kg/injection, schedule: Q04DX002 (ip), vehicle: Klucel (hydroxypropylcellulose) (HPC) 104 % of control | dose: 200.0 mg/kg/injection, schedule: Q04DX002 (ip), vehicle: Klucel (hydroxypropylcellulose) (HPC) 100 % of control | dose: 400.0 mg/kg/injection, schedule: Q04DX002 (ip), vehicle: Klucel (hydroxypropylcellulose) (HPC) 107 % of control

CC(C)(C)S(=O)(=O)CCCCS(=O)(=O)C(C)(C)C
inactive: [1] 102 % of control | dose: 100.0 mg/kg/injection, schedule: Q01DX009 (ip), vehicle: saline 104 % of control | dose: 100.0 mg/kg/injection, schedule: Q04DX003 (ip), vehicle: acetone 100 % of control | [2] 94 % of control | [3] 96 % of control | dose: 200.0 mg/kg/injection, schedule: Q04DX003 (ip), vehicle: acetone 96 % of control | [4] 88 % of control | dose: 400.0 mg/kg/injection, schedule: Q01DX009 (ip), vehicle: saline 105 % of control | dose: 400.0 mg/kg/injection, schedule: Q04DX003 (ip), vehicle: acetone 89 % of control
